Experimental data: US20150377888A1, “Methods for Predicting and Preventing Metastasis in Triple Negative Breast Cancers” (INSERM (INSTITUT NATIONAL DE LA SANTÉ ET DE LA RECHERCHE …, priority 2013, published 2015)

Legend:
NADPHox = test: Flow cytometry analysis of intracellular ROS (H2FDA); type: cell-based, human
Experimental: Cells were pre-incubated for 30 min at 37° C. with 3 μM of H2FDA resuspended in PBS. The cells were then pre-incubated for an additional 30 min with or without ROS inhibitors before stimulation with 100 ng/ml cl-CD95L for the indicated times. Cells were then washed and analyzed by FACScalibur (BD Bioscience).

EGFR = EGFR phosphorylation at Tyr845 / CD95-driven EGFR activation; type: cell-based, human; conditions: MDA-MB-468 cells exposed to cl-CD95L
Experimental: Cells were lysed for 30 min at 4° C. in lysis buffer [25 mM HEPES (pH 7.4), 1% v/v Triton X-100, 150 mM NaCl, and 2 mM EGTA supplemented with a mix of protease inhibitors (Sigma-Aldrich)]. Protein concentration was determined by the bicinchoninic acid method (PIERCE, Rockford, Ill., USA) according to the manufacturer's protocol. Proteins were separated by SDS-PAGE and transferred to a nitrocellulose membrane (GE Healthcare, Buckinghamshire, England). The membrane was blocked for 15 min with TBST (50 mM Tris, 160 mM NaCl, 0.05% v/v Tween 20, pH 7.8) containing 5% w/v dried skimmed milk (TBSTM) and then incubated overnight with primary antibody at 4° C. in TBSTM. The membrane was intensively washed (TBST) and peroxidase-labeled anti-rabbit or anti-mouse (SouthernBiotech, Birmingham, Ala., US) was added for 45 min. The proteins were visualized with the enhanced chemiluminescence substrate kit (ECL, GE Healthcare).

PI3K = test: Immunoblot of Akt phosphorylation at Ser473 (hallmark of PI3K activation) in cells exposed to cl-CD95L; type: cell-based, human; conditions: all tested TNBC cell lines
Experimental: Cells were lysed for 30 min at 4° C. in lysis buffer [25 mM HEPES (pH 7.4), 1% v/v Triton X-100, 150 mM NaCl, and 2 mM EGTA supplemented with a mix of protease inhibitors (Sigma-Aldrich)]. Protein concentration was determined by the bicinchoninic acid method (PIERCE, Rockford, Ill., USA) according to the manufacturer's protocol. Proteins were separated by SDS-PAGE and transferred to a nitrocellulose membrane (GE Healthcare, Buckinghamshire, England). […] The proteins were visualized with the enhanced chemiluminescence substrate kit (ECL, GE Healthcare).

CD95 = target: T1, CD95 (Homo sapiens, UniProt P25445); test: MISC immunoprecipitation; type: cell-based; conditions: MDA-MB-231 and MDA-MB-468 cells stimulated with cl-CD95L
T1 construct: endogenous in cells; host or cells: MDA-MB-231 and MDA-MB-468 human TNBC breast cancer cells
T1 sequence (P25445 26-335): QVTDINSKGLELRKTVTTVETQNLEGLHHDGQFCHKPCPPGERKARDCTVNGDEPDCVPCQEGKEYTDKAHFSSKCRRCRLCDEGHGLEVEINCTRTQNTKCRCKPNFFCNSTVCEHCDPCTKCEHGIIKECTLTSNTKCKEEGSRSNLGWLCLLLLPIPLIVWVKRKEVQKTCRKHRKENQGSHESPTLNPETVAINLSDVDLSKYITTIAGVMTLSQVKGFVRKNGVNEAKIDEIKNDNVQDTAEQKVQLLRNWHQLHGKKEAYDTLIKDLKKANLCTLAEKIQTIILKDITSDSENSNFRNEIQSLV
T1 sequence (P48023 130-281 partner limits assumed): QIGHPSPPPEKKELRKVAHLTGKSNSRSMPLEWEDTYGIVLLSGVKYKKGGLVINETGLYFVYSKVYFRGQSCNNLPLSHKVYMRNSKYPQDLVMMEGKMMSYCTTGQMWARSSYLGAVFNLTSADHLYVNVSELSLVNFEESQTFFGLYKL
Experimental: Breast cancer cells (20×10^6 cells per condition) were incubated with 100 ng/ml cl-CD95L for the indicated times. The cells were then lysed, 1 μg of Apo1-3 was added to the cell lysate and CD95 was immunoprecipitated by the addition of protein A-sepharose beads (Sigma-Aldrich). For the immunoprecipitation of EGF-R, 1 μg mouse anti-EGF-R (Santa Cruz Biotechnology, CA, USA) was added to the cell lysate and EGF-R was immunoprecipitated with protein A-sepharose beads (Sigma-Aldrich). After extensive washing, the immune complex was resolved by SDS-PAGE.

[1] = system: TNBC breast cancer cell lines (Hs578T, MDA-MB-231 and MDA-MB-468); test: In vitro motility assay (Boyden chambers); type: cell-based, human
Experimental: Boyden chambers (Millipore, Molsheim, France) containing 8 μm pore membranes were cultured in 24-well plates. After hydration of the membranes, 10^5 cells were added to the top chamber in low serum (1%)-containing medium. […] Cells were cultured for 24 h at 37° C. in a 5% CO2 humidified incubator. To quantify invasion, cells were fixed with methanol and stained with Giemsa. Stained cells were then removed from the top side of the membrane using a cotton-tipped swab and five representative pictures for each insert were taken of the invading cells from the reverse side. For each experiment, cells were lysed and absorbance at 560 nm was measured.

- MISC formation (CD95): induces MISC formation
Substance: cl-CD95L: soluble ligand produced by metalloprotease cleavage of the transmembrane CD95L (FasL); produced in transfected 293 cells
- intracellular ROS in breast cancer cells exposed to cl-CD95L (NADPHox): rapid increase in intracellular ROS
- phosphorylation of EGFR at Tyr845 (EGFR): resulted in phosphorylation of EGFR at Tyr845
- time of peak of EGFR Tyr845 phosphorylation (EGFR): 2 min
- time of stimulation after which EGFR Tyr845 phosphorylation disappeared (EGFR): 10 min
- phosphorylation of Akt at Ser473 induced by CD95L (PI3K): induced rapid phosphorylation of Akt
- motility of TNBC cells stimulated with cl-CD95L ([1]; Hs578T, MDA-MB-231 and MDA-MB-468, Boyden chambers): dramatic increase in motility
- migration of TNBC cells, titration of cl-CD95L ([1]; cl-CD95L at 100 pg/ml): induced migration of TNBC cells
